Laboratory results: patent publication US20190282566A1, “USE OF FLIBANSERIN IN THE TREATMENT OF OBESITY” (Sprout Pharmaceuticals, Inc., priority 2005, published 2019)

Key:
[1] = 13-week dietary admixture study in rats, body weight; assay type: in vivo
Method: To test the efficacy of Flibanserin in the treatment of obesity groups of the rats per sex per group (gang-housed) received Flibnanserin at dosages of 0 (control), 100, 200, and 600 mg/kg/day via dietary admixture. The test compound was mixed with the food to obtain a 3% premix. This premix was prepared in week −1 and drug week 7 and was used to prepare the substance/food mixtures for all individual groups. The substance/food concentration was calculated using the mean daily food intake from the study week before. The substance/food mixture was made weekly for every dose group and stored under darkness in the animal room. The concentration, homogeneity and stability of the test substance in the food was checked during study week 2 with reanalysis one and four weeks later. One further check of concentration and homogeneity was performed in week 13. The body weight of each animal was determined and recorded once a week including the pretest acclimation period, in the morning on the same day of the week.
The following tables presents the results of the above described experiments as absolute body weights at start of treatment (week −1) as well as in drug week 6 and 13, including percentage change compared to controls. (in parentheses).

5-HT2-receptor family = settings: cited from earlier work
5-HT1A receptor = molecular target: T1, 5-HT1A receptor (Homo sapiens, UniProt P08908); settings: cited from earlier work
T1 sequence (P08908 1-422): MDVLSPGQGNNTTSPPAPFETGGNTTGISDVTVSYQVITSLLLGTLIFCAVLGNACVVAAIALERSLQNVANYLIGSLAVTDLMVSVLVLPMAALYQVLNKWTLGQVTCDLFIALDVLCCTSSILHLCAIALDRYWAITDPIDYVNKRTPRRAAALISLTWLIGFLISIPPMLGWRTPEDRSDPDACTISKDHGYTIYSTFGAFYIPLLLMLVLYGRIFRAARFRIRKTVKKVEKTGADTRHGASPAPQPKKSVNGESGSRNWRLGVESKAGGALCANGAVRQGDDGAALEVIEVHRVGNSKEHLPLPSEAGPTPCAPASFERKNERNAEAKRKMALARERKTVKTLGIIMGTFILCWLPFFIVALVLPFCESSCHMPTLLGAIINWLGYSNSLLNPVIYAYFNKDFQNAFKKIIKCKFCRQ

[2] = female rats, 100 mg/kg/day via diet, drug week 6
[3] = female rats, 100 mg/kg/day via diet, drug week 13
[4] = female rats, 100 mg/kg/day via diet, drug week −1 (start of treatment)
[5] = female rats, 200 mg/kg/day via diet, drug week 6
[6] = female rats, 200 mg/kg/day via diet, drug week 13
[7] = female rats, 200 mg/kg/day via diet, drug week −1 (start of treatment)
[8] = female rats, 600 mg/kg/day via diet, drug week 6
[9] = female rats, 600 mg/kg/day via diet, drug week 13
[10] = female rats, 600 mg/kg/day via diet, drug week −1 (start of treatment)
[11] = male rats, 100 mg/kg/day via diet, drug week 6
[12] = male rats, 100 mg/kg/day via diet, drug week 13
[13] = male rats, 100 mg/kg/day via diet, drug week −1 (start of treatment)
[14] = male rats, 200 mg/kg/day via diet, drug week 6
[15] = male rats, 200 mg/kg/day via diet, drug week 13
[16] = male rats, 200 mg/kg/day via diet, drug week −1 (start of treatment)
[17] = male rats, 600 mg/kg/day via diet, drug week 6
[18] = male rats, 600 mg/kg/day via diet, drug week 13
[19] = male rats, 600 mg/kg/day via diet, drug week −1 (start of treatment)

## O=c1[nH]c2ccccc2n1CCN1CCN(c2cccc(C(F)(F)F)c2)CC1 [BIMT 17 BS, 1-[2-(4-(3-trifluoromethyl-phenyl)piperazin-1-yl)ethyl]-2,3-dihydro-1H-benzimidazol-2-one]
[1]; [2]
  Mean absolute body weight: 213.6 grams
  percent change to controls (body weight): −6.8%
[1]; [3]
  Mean absolute body weight: 234.5 grams
  percent change to controls (body weight): −10.3%
[1]; [4]
  Mean absolute body weight: 141.3 grams
  percent change to controls (body weight): +0.1%
[1]; [5]
  Mean absolute body weight: 209.7 grams
  percent change to controls (body weight): −8.5%
[1]; [6]
  Mean absolute body weight: 234.9 grams
  percent change to controls (body weight): −10.2%
[1]; [7]
  Mean absolute body weight: 142.2 grams
  percent change to controls (body weight): +0.7%
[1]; [8]
  Mean absolute body weight: 196.0 grams
  percent change to controls (body weight): −14.4%
[1]; [9]
  Mean absolute body weight: 225.8 grams
  percent change to controls (body weight): −13.7%
[1]; [10]
  Mean absolute body weight: 140.7 grams
  percent change to controls (body weight): −0.4%
[1]; females, 100 mg/kg/day
  difference compared to controls at study end (body weight decrease): 10%
[1]; females, 200 mg/kg/day
  difference compared to controls at study end (body weight decrease): 10%
[1]; females, 600 mg/kg/day
  difference compared to controls at study end (body weight decrease): 14%
[1]; [11]
  Mean absolute body weight: 340.9 grams
  percent change to controls (body weight): −7.4%
[1]; [12]
  Mean absolute body weight: 397.4 grams
  percent change to controls (body weight): −9.8%
[1]; [13]
  Mean absolute body weight: 188.1 grams
  percent change to controls (body weight): −1.7%
[1]; [14]
  Mean absolute body weight: 340.4 grams
  percent change to controls (body weight): −7.5%
[1]; [15]
  Mean absolute body weight: 400.9 grams
  percent change to controls (body weight): −9.0%
[1]; [16]
  Mean absolute body weight: 189.3 grams
  percent change to controls (body weight): −1.0%
[1]; [17]
  Mean absolute body weight: 284.8 grams
  percent change to controls (body weight): −22.7%
[1]; [18]
  Mean absolute body weight: 333.2 grams
  percent change to controls (body weight): −24.3%
[1]; [19]
  Mean absolute body weight: 186.8 grams
  percent change to controls (body weight): −2.4%
[1]; males, 100 mg/kg/day
  difference compared to controls at study end (body weight decrease): 10%
[1]; males, 200 mg/kg/day
  difference compared to controls at study end (body weight decrease): 9%
[1]; males, 600 mg/kg/day
  difference compared to controls at study end (body weight decrease): 24%
[1]; rats, 100, 200 and 600 mg/kg/day via diet, in almost all drug weeks, versus controls
  body weight gain of males and females: significantly decreased
5-HT2-receptor family
  affinity for the 5-HT2-receptor family: shows affinity
5-HT1A receptor
  affinity for the 5-HT1A receptor: shows affinity
